# Measurements: ChEMBL document CHEMBL6177950, “Discovery of potent and selective CDK2 inhibitors with high safety and favorable bioavailability for the treatment of cancer” (Eur J Med Chem, 2025)
# Calls of active or inactive are those of the source. No cut-off for these calls is given here.
# Tests used:
# OVCAR-3 [1] = experiment: Downregulation of proliferation-related signaling pathway gene expression in human OVCAR-3 cells by GSEA; type: functional, cell-based
# [2] = Acute toxicity in ICR mouse assessed as pathological changes in spleen at 1000 to 2500 mg/kg, po administered once for 14 days by H and E staining analysis; type: organism-based; details: in vivo, 336 h, dose 1000-2500 mg/kg, time 14 day
# OVCAR-3 [3] = experiment: Inhibition of colony formation in CCNE1-amplified human OVCAR-3 incubated for 2 weeks by crystal violet staining based inverted microscopic analysis; type: functional, cell-based; details: dose 1-4 µM
# OVCAR-3 [4] = experiment: Induction of apoptosis in human OVCAR-3 cells assessed as early apoptotic cells at 2 uM incubated for 24 hrs by Annexin V-FITC/PI staining based flow cytometry analysis (reference value: 1.25%); type: functional
# OVCAR-3 [5] = experiment: Induction of cell cycle arrest in human OVCAR-3 cells assessed as accumulation of cells at G1 phase at 1 uM incubated for 24 hrs by flow cytometry analysis (reference value: 67.73%); type: functional
# OVCAR-3 [6] = experiment: Induction of apoptosis in human OVCAR-3 cells assessed as reduction in Bcl2 expression incubated for 24 hrs by Western blot analysis; type: functional, cell-based
# OVCAR-3 [7] = experiment: Upregulation of inflammation-related pathway gene expression in human OVCAR-3 cells by GSEA; type: functional, cell-based
# [8] = AUC (0 to infinity) in Sprague-Dawley rat at 2 mg/kg, iv by LC-MS/MS analysis; type: ADME, organism-based; details: in vivo
# OVCAR-3 [9] = experiment: Induction of apoptosis in human OVCAR-3 cells assessed as late apoptotic cells at 2 uM incubated for 24 hrs by Annexin V-FITC/PI staining based flow cytometry analysis (reference value: 2.67%); type: functional
# [10] = Acute toxicity in ICR mouse assessed as pathological changes in kidney at 1000 to 2500 mg/kg, po administered once for 14 days by H and E staining analysis; type: organism-based; details: in vivo, 336 h, dose 1000-2500 mg/kg, time 14 day
# [11] = molecular target: Cyclin-dependent kinase 2/cyclin E1 (Homo sapiens, UniProt P24941); experiment: Inhibition of CDK2/Cyclin E1 (unknown origin) pre-incubated for 10 mins followed by ATP/substrate addition and measured after 60 mins by ADP-Glo assay; type: protein-complex assay
# [12] = Clearance in Sprague-Dawley rat at 2 mg/kg, iv by LC-MS/MS analysis; type: ADME, organism-based; details: in vivo
# OVCAR-3 [13] = experiment: Antitumor activity against human OVCAR-3 cells xenografted in nude BALB/c mouse model assessed as tumor growth inhibition at 80 mg/kg, po administered once daily for 21 days; type: functional, organism-based; details: time 21.0 day
# OVCAR-3 [14] = experiment: Upregulation of Bcl2l1gene expression in human OVCAR-3 cells by GSEA; type: functional, cell-based
# [15] = Cmax in Sprague-Dawley rat at 20 mg/kg, po by LC-MS/MS analysis; type: ADME, organism-based; details: in vivo
# OVCAR-3 [16] = experiment: Induction of cell cycle arrest in human OVCAR-3 cells assessed as accumulation of cells at G2 phase at 1 uM incubated for 24 hrs by flow cytometry analysis (reference value: 21.77%); type: functional
# [17] = Acute toxicity in ICR mouse assessed as pathological changes in heart at 1000 to 2500 mg/kg, po administered once for 14 days by H and E staining analysis; type: organism-based; details: in vivo, 336 h, dose 1000-2500 mg/kg, time 14 day
# CDK1/Cyclin A = CDK1/Cyclin A (Homo sapiens, UniProt P06493); experiment: Inhibition of CDK1/Cyclin A2 (unknown origin) pre-incubated for 10 mins followed by ATP/substrate addition and measured after 60 mins by ADP-Glo assay; type: protein-complex assay
# CDK1/Cyclin A, sequence (P06493 whole entry): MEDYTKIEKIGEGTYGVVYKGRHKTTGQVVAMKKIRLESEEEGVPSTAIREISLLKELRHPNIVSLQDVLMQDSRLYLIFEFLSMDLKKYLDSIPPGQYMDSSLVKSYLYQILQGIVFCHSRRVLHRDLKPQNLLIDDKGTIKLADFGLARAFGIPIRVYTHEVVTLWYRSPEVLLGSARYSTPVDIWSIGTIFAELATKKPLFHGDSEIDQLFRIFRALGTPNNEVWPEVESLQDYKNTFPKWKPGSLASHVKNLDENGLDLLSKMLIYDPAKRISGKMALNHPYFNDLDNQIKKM
# CDK1/Cyclin A, sequence (P20248 whole entry, further chain): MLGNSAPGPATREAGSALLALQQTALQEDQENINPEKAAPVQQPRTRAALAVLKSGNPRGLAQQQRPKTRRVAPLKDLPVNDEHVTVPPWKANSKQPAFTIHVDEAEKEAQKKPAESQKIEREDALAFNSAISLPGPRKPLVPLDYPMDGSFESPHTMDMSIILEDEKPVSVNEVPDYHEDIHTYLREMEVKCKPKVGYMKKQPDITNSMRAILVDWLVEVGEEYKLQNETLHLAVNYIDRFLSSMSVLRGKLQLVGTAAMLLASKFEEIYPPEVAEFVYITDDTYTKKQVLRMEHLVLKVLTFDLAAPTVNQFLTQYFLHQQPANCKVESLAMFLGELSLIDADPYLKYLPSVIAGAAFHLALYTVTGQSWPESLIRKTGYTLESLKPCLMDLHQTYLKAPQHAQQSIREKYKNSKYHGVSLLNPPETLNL
# [18] = Half life in Sprague-Dawley rat at 20 mg/kg, po by LC-MS/MS analysis; type: ADME, organism-based; details: in vivo
# [19] = Acute toxicity in ICR mouse assessed as pathological changes in liver at 1000 to 2500 mg/kg, po administered once for 14 days by H and E staining analysis; type: organism-based; details: in vivo, 336 h, dose 1000-2500 mg/kg, time 14 day
# [20] = Acute toxicity in ICR mouse assessed as animal death at 1000 to 2500 mg/kg, po administered once for 14 days; type: organism-based; details: in vivo, 336 h, dose 1000-2500 mg/kg, time 14 day
# [21] = Acute toxicity in ICR mouse assessed as effect on kidney weight at 1000 to 2500 mg/kg, po administered once for 14 days; type: organism-based; details: in vivo, 336 h, dose 1000-2500 mg/kg, time 14 day
# [22] = Clearance in Sprague-Dawley rat at 20 mg/kg, po by LC-MS/MS analysis; type: ADME, organism-based; details: in vivo
structure (smiles),measurement,setting,value
CCC(C)n1cc(-c2nc(NC3CCN(S(=O)(=O)C4CC4)CC3)ncc2F)cc(F)c1=O (stereo not drawn),Activity,OVCAR-3 [1],Active
same,Activity,[2],Non-toxic
same,inhibition,OVCAR-3 [3],Dose-dependent-effect
same,Activity,OVCAR-3 [4],3.81%
same,Activity,OVCAR-3 [5],94.69%
same,Activity,OVCAR-3 [6],Dose-dependent-effect
same,Activity,OVCAR-3 [7],Active
same,AUC(0-inf),[8],1480 ng·h/mL
same,Activity,OVCAR-3 [9],13.2%
same,Activity,[10],Non-toxic
same,IC50,[11],0.9 nM
same,clearance,[12],28.3 mL/min/kg
same,Activity,OVCAR-3 [13],Active
same,Activity,OVCAR-3 [14],Active
same,Cmax,[15],2130 ng/mL
same,Activity,OVCAR-3 [16],4.3%
same,Activity,[17],Non-toxic
same,IC50,CDK1/Cyclin A,15 nM
same,half-life,[18],4.54 h
same,Activity,[19],Non-toxic
same,Activity,[20],Non-toxic
same,Activity,[21],Non-toxic
same,CL/F,[22],29.2 mL/min/kg
